Like-named read-outs stand apart in the source and are kept apart here.
Experiments:
Assay type in all cases: cell-based
Hela = assay: Antiproliferation assay (MTS), HeLa cells; details: Homo sapiens, 96 h
Procedure: (§1) Cells were grown at 37° C. in a humidified atmosphere consisting of 5% CO2 and 95% air.
(§2) Antiproliferation Assays: Cells were plated in a 96-well culture plate with 2000-8000 cells per well. The compounds were prepared in DMSO and used to treat cells in a final concentration of less than 1% DMSO. Compound treatment started after overnight incubation of cells (T0). […] Compound was added to the plate in triplicate wells, and the plates were then incubated for 96 hours. DMSO (compound diluent) was also included and added to the plate in control wells. Cell viability was then determined by MTS assay using the CellTiter 96® aqueous non-radioactive cell proliferation assay system (Promega, Madison, Wis. 53711 USA). A plate reader (Vmax, Molecular Devices, Sunnyvale Calif. 94089 USA) was used to determine the optical densities, and the results were used to deduce concentration-response curves. […] The results were analyzed using linear regression software (GraphPad Prism 5; GraphPad Software Inc. La Jolla Calif. 92037 USA).

K562 = assay: Antiproliferation assay (MTS), K562 cells; details: Homo sapiens, K562, 96 h
Procedure: as §1, §2

MDA-MB-468 = assay: Antiproliferation assay (MTS), MDA-MB-468 cells; details: Homo sapiens, MDA-MB-468, 96 h
Procedure: as §1, §2

MDA-MB-231 = assay: Antiproliferation assay (MTS), MDA-MB-231 cells; details: Homo sapiens, MDA-MB-231, 96 h, read-out: Antiproliferative IC50 MDA-MB-231, Table 1
Procedure: as §1, §2

[1] = Table 1, read-out: Antiproliferative IC50 Hela
[2] = Table 1, read-out: Antiproliferative IC50 K562
[3] = Table 1, read-out: Antiproliferative IC50 MDA-MB-468
[4] = Table 2, read-out: Antiproliferative IC50 Hela

Row | Compound | IC50 (Hela; [1]) | IC50 (K562; [2]) | IC50 (MDA-MB-468; [3]) | IC50 (MDA-MB-231) | IC50 (Hela; [4]) | IC50 (K562; Table 2, read-out: Antiproliferative IC50 K562) | IC50 (MDA-MB-468; Table 2, read-out: Antiproliferative IC50 MDA-MB-468)
1 | Cc1cc(N(C)C)cc(C)c1-c1csc(NC(=O)c2ccncc2)n1 [Compound 1, N-{4-(4-(Dimethylamino)-2,6-dimethylphenyl)thiazol-2-yl}isonicotinamide] | 251 nM | 86.7 nM | 167 nM | 144 nM | – | – | –
2 | COc1ccc(Oc2cc(C)c(-c3nc(NC(=O)c4ccncc4)sc3Br)c(C)c2)cc1 [Compound 2, N-{5-Bromo-4-(4-(4-methoxyphenoxy)-2,6-dimethylphenyl)thiazol-2-yl}isonicotinamide] | 660 nM | 273 nM | 594 nM | 484 nM | – | – | –
3 | COc1ccc(Sc2cc(C)c(-c3csc(NC(=O)c4ccncc4)n3)c(Cl)c2)cc1 [Compound 3, N-{4-(2-Chloro-4-(4-methoxyphenylsulfanyl)-6-methylphenyl)thiazol-2-yl}isonicotinamide] | 26.9 nM | 23.4 nM | 27 nM | 28.2 nM | – | – | –
4 | Cc1cc(OCC2CC2)cc(C)c1-c1csc(NC(=O)c2ccncc2)n1 [Compound 4, N-{4-(4-(Cyclopropylmethoxy)-2,6-dimethylphenyl)thiazol-2-yl}isonicotinamide] | 281 nM | 206 nM | 245 nM | 157 nM | – | – | –
5 | Cc1cc(Oc2ccc(O)nc2)cc(C)c1-c1csc(NC(=O)c2ccncc2)n1 [Compound 5, N-{4-(4-(6-Hydroxypyridin-3-yloxy)-2,6-dimethylphenyl)thiazol-2-yl}isonicotinamide] | 903 nM | 563 nM | 1010 nM | 1240 nM | – | – | –
6 | Cc1cc(Oc2ncccn2)cc(C)c1-c1csc(NC(=O)c2ccncc2)n1 [Compound 6, N-{4-(2,6-Dimethyl-4-(pyrimidin-2-yloxy)phenyl)thiazol-2-yl}isonicotinamide] | 1020 nM | 366 nM | 661 nM | 713 nM | – | – | –
7 | Cc1cc(Oc2cnccn2)cc(C)c1-c1csc(NC(=O)c2ccncc2)n1 [Compound 7, N-{4-(2,6-Dimethyl-4-(pyrazin-2-yloxy)phenyl)thiazol-2-yl}isonicotinamide] | 217 nM | 92 nM | 191 nM | 161 nM | – | – | –
8 | COc1cnc(Oc2cc(C)c(-c3csc(NC(=O)c4ccncc4)n3)c(C)c2)nc1 [Compound 8, N-{4-(4-(5-Methoxypyrimidin-2-yloxy)-2,6-dimethylphenyl)thiazol-2-yl}isonicotinamide] | 130 nM | 71.8 nM | 85.4 nM | 121 nM | – | – | –
9 | COc1ccc(Oc2cc(C)c(-c3csc(NC(=O)c4ccncc4)n3)c(C)c2)cn1 [Compound 9, N-{4-(4-(6-Methoxypyridin-3-yloxy)-2,6-dimethylphenyl)thiazol-2-yl}isonicotinamide] | 81.6 nM | 39.1 nM | 48.4 nM | 65.8 nM | – | – | –
10 | COc1cc(Cl)c(-c2csc(NC(=O)c3ccncc3)n2)c(Cl)c1 [Compound 10, N-(4-(2,6-Dichloro-4-methoxyphenyl)thiazol-2-yl)isonicotinamide] | 4430 nM | 633 nM | 6550 nM | 2330 nM | – | – | –
11 | Cc1cc(Sc2cnccn2)cc(C)c1-c1csc(NC(=O)c2ccncc2)n1 [Compound 11, N-{4-(2,6-Dimethyl-4-(pyrazin-2-ylthio)phenyl)thiazol-2-yl}isonicotinamide] | 33.4 nM | 38.2 nM | 52.4 nM | 47.4 nM | – | – | –
12 | COc1cc(F)c(-c2csc(NC(=O)c3ccncc3)n2)c(Cl)c1 [Compound 13, N-(4-(2-Chloro-6-fluoro-4-methoxyphenyl)thiazol-2-yl)isonicotinamide] | 375 nM | 247 nM | 1020 nM | 386 nM | – | – | –
13 | COc1cc(F)cc(Cl)c1-c1csc(NC(=O)c2ccncc2)n1 [Compound 14, N-(4-(2-Chloro-4-fluoro-6-methoxyphenyl)thiazol-2-yl)isonicotinamide] | 2990 nM | 3690 nM | 9430 nM | 6350 nM | – | – | –
14 | Cc1cc(Oc2ccc(OC(C)C)cc2)cc(C)c1-c1csc(NC(=O)c2ccncc2)n1 [Compound 16, N-{4-(4-(4-Isopropoxyphenoxy)-2,6-dimethylphenyl)thiazol-2-yl}isonicotinamide] | 80.1 nM | 59.2 nM | 69.7 nM | 80.7 nM | – | – | –
15 | COc1ccc(Oc2cc(C)c(-c3csc(NC(=O)c4ccncc4)n3)c(C)c2)nc1 [Compound 18, N-(4-{4-((5-Methoxypyridin-2-yl)oxy)-2,6-dimethylphenyl}thiazol-2-yl)isonicotinamide] | 40.6 nM | 43.7 nM | 49.4 nM | 40.8 nM | – | – | –
16 | Cc1cc(OCCN(C)C)cc(C)c1-c1csc(NC(=O)c2ccncc2)n1 [Compound 23, N-(4-{4-(2-(Dimethylamino)ethoxy)-2,6-dimethylphenyl}thiazol-2-yl)isonicotinamide] | > 10000 nM | > 10000 nM | > 10000 nM | > 10000 nM | – | – | –
17 | Cc1cc(Oc2ccc([N+](=O)[O-])nc2)cc(C)c1-c1csc(NC(=O)c2ccncc2)n1 [Compound 24, N-{4-(2,6-Dimethyl-4-(6-nitropyridin-3-yloxy)phenyl)thiazol-2-yl}isonicotinamide] | 73.8 nM | 148 nM | 158 nM | 181 nM | – | – | –
18 | Cc1cc(Oc2ccc(Oc3ccccc3)cc2)cc(C)c1-c1csc(NC(=O)c2ccncc2)n1 [Compound 26, N-{4-(2,6-Dimethyl-4-(4-phenoxyphenoxy)phenyl)thiazol-2-yl}isonicotinamide] | 84.8 nM | 64.4 nM | 132 nM | 99.4 nM | – | – | –
19 | Cc1cc(Sc2cnc(OCCN(C)C)cn2)cc(C)c1-c1csc(NC(=O)c2ccncc2)n1 [Compound 28, N-(4-(4-{5-(2-(Dimethylamino)ethoxy)pyrazin-2-ylthio}-2,6-dimethylphenyl)thiazol-2-yl)isonicotinamide] | 32.8 nM | 59.2 nM | 74.5 nM | 124 nM | – | – | –
20 | COCCNc1ccc(Oc2cc(C)c(-c3csc(NC(=O)c4ccncc4)n3)c(C)c2)cn1 [Compound 29, N-(4-{4-(6-(2-Methoxyethylamino)pyridin-3-yloxy)-2,6-dimethylphenyl}thiazol-2-yl)isonicotinamide] | 8.3 nM | 11.7 nM | 16.6 nM | 21.9 nM | – | – | –
21 | COc1ccc(Oc2cc(C)c(-c3csc(NC(=O)c4ccncc4)n3)c(F)c2)cc1 [Compound 30, N-{4-(2-Fluoro-4-(4-methoxyphenoxy)-6-methylphenyl)thiazol-2-yl}isonicotinamide] | 108 nM | 107 nM | 143 nM | 270 nM | – | – | –
22 | COCCOc1cnc(S(=O)(=O)c2cc(C)c(-c3csc(NC(=O)c4ccncc4)n3)c(C)c2)cn1 [Compound 31, N-(4-{4-(5-(2-Methoxyethoxy)pyrazin-2-ylsulfonyl)-2,6-dimethylphenyl}thiazol-2-yl)isonicotinamide] | 957 nM | 635 nM | 1000 nM | 1120 nM | – | – | –
23 | COCCOc1cnc([S+]([O-])c2cc(C)c(-c3csc(NC(=O)c4ccncc4)n3)c(C)c2)cn1 (centres unmarked) [Compound 32, N-(4-{4-(5-(2-Methoxyethoxy)pyrazin-2-ylsulfinyl)-2,6-dimethylphenyl}thiazol-2-yl)isonicotinamide] | 1120 nM | 734 nM | 1280 nM | 1700 nM | – | – | –
24 | COc1cc(C)c(-c2csc(NC(=O)Nc3ccncc3)n2)c(C)c1 [Compound 45, 1-(4-(4-Methoxy-2,6-dimethylphenyl)thiazol-2-yl)-3-(pyridin-4-yl)urea] | – | 486 nM | 615 nM | 628 nM | – | – | –
25 | Cc1cc(C)c(-c2csc(NC(=O)/C=C/c3cccnc3)n2)c(C)c1 [Compound 50, (E)-N-(4-Mesitylthiazol-2-yl)-3-(pyridin-3-yl)acrylamide] | – | – | 2170 nM | 1110 nM | – | – | –
26 | Cc1cc(Nc2ccc(Br)cc2)cc(C)c1-c1csc(NC(=O)c2ccncc2)n1 [Compound 52, N-(4-(4-(4-Bromophenylamino)-2,6-dimethylphenyl)thiazol-2-yl)isonicotinamide] | 2130 nM | 362 nM | – | 717 nM | – | – | –
27 | COc1cc(C)c(-c2csc(NC(=O)Nc3ccncc3)n2)c(C)c1 [II-67, 1-(4-(4-Methoxy-2,6-dimethylphenyl)thiazol-2-yl)-3-(pyridin-4-yl)urea] | – | – | – | – | > 10000 nM | – | –
28 | Cc1cc(C)c(-c2csc(NC(=O)/C=C/c3cccnc3)n2)c(C)c1 [II-103, (E)-N-(4-Mesitylthiazol-2-yl)-3-(pyridin-3-yl)acrylamide] | – | – | – | – | > 10000 nM | 2480 nM | –
29 | Cc1cc(Nc2ccc(Br)cc2)cc(C)c1-c1csc(NC(=O)c2ccncc2)n1 [II-122, N-(4-(4-(4-Bromophenylamino)-2,6-dimethylphenyl)thiazol-2-yl)isonicotinamide] | – | – | – | – | – | – | 1220 nM
